Assay [1] has as its target T1, Tyrosine-protein phosphatase non-receptor type 22 (Homo sapiens, UniProt Q9Y2R2).
T1 sequence (Q9Y2R2 whole entry): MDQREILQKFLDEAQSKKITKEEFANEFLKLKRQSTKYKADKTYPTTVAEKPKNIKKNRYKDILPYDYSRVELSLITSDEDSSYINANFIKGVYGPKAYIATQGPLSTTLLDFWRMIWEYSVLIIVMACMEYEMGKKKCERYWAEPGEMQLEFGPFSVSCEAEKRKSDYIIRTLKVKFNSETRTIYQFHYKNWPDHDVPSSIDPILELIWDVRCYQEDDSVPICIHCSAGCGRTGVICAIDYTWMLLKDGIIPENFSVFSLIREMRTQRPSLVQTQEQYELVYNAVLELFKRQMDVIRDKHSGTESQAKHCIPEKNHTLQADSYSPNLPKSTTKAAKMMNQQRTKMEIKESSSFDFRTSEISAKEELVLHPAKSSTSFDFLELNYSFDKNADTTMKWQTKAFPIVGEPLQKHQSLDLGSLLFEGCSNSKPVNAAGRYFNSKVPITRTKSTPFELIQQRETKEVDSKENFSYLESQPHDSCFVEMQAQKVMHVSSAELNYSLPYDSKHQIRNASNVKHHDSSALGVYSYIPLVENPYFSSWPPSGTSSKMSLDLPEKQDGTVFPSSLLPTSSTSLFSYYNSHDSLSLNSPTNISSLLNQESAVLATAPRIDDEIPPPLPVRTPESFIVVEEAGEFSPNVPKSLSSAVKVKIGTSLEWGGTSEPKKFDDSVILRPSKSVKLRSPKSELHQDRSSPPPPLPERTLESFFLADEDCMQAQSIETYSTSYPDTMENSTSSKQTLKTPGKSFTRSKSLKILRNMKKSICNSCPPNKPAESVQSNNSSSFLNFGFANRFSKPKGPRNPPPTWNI
In words: LYP phosphatase inhibition for selectivity, dose response, selectivity assay for LMPTP inhibitor project, biochemical, fluorescence, LYP catalytic domain (AID 652006). Type of assay: functional. Conditions: read-out: IC50_Mean.

Assay [2] concerns the target Dual specificity tyrosine-phosphorylation-regulated kinase 1A (Rattus norvegicus, UniProt Q63470). Format: biochemical, Homo sapiens.
Assay [3] concerns the target T2, Low molecular weight phosphotyrosine protein phosphatase (Homo sapiens, UniProt P24666).
T2 sequence (P24666 whole entry): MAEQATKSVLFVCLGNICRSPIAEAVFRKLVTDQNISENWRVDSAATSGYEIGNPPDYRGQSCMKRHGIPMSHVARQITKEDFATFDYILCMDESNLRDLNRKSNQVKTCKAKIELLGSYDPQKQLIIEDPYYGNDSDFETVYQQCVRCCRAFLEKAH
Type of assay: functional. Conditions: read-out: IC50_Mean.

The target of assay [4] is T2, Low molecular weight phosphotyrosine protein phosphatase. Type of assay: functional. Particulars: read-out: IC50_Mean. The source holds these as a separate data set.
Assay [5] in a line: DNA binding of candidate compounds, dose response, artefact control for RAD54 inhibitor project, biochemical, fluorescence polarization, cherry-pick (AID 651673). Format: functional. (In general: Polarisation of emitted light reports the rotation of a fluorescent probe.)
Assay [6] has as its target T3, DNA repair and recombination protein RAD54-like (Homo sapiens, UniProt Q92698).
T3 sequence (Q92698 whole entry): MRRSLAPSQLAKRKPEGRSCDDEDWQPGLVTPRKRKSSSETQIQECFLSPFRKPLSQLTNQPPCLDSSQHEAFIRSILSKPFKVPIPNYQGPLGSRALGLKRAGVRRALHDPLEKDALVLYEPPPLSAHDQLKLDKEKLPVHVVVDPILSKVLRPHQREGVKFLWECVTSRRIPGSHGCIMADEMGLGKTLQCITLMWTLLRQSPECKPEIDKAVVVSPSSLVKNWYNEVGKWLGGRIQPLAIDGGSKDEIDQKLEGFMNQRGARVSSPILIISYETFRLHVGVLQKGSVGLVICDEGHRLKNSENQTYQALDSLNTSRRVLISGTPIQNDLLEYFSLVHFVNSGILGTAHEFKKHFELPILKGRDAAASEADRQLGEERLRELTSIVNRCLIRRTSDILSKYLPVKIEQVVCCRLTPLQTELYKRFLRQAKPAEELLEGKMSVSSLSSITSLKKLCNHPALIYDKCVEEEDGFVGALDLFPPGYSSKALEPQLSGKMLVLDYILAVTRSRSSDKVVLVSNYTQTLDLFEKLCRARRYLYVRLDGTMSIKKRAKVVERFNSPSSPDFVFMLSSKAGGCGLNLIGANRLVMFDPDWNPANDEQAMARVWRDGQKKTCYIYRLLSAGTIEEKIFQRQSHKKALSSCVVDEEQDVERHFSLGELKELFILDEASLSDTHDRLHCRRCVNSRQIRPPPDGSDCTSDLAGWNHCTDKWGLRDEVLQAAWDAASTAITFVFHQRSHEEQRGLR
The experiment in a line: inhibitors of human RAD54 branch migration, confirmation, biochemical, fluorescence, cherry-picked samples, dose series (AID 651657). Type of assay: functional.

The target in assay [7] is T4, Sentrin-specific protease 1 (Homo sapiens, UniProt Q9P0U3).
T4 sequence (Q9P0U3 whole entry): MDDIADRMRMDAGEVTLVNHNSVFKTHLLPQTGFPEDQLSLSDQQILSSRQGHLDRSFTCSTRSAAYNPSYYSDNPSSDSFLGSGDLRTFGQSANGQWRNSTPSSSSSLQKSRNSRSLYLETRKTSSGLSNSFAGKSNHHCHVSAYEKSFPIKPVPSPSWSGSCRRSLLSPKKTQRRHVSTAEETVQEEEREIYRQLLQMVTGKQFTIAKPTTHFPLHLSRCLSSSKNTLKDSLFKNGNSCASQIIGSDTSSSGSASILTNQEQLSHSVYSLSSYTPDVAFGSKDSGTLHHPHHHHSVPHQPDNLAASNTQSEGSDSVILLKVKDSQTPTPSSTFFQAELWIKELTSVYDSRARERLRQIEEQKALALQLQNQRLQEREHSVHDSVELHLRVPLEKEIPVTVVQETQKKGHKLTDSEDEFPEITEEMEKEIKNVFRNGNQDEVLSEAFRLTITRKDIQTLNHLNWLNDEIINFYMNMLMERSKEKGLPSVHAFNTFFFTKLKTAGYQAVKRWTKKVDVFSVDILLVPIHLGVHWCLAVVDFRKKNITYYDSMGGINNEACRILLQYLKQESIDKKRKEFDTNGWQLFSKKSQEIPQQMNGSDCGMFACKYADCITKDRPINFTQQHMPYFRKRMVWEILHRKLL
In words: Dose response confirmation of small molecule inhibitors of the catalytic domain of the SUMO protease, SENP1 in a FRET assay. Format: functional. Conditions: read-out: IC50_Mean.

The target of assay [8] is ADP-ribosylation factor GTPase-activating protein 1 (Rattus norvegicus, UniProt Q62848). In words: Fluorescence polarization-based biochemical high throughput dose response screening assay to identify inhibitors of ADP-ribosylation factor GTPase activating protein 1 (ARFGAP1). Type of assay: functional.
For assay [9], the target named is Arf-GAP with SH3 domain, ANK repeat and PH domain-containing protein 1 (Homo sapiens, UniProt Q9ULH1). Format: functional.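 Note: biochemical fluorescence polarization dose–response screen measuring inhibition of ASAP1; ASAP1 GAP domain stimulating GTP hydrolysis by truncated human ARF1.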
A further assay concerns the target T5, Estrogen receptor (Homo sapiens, UniProt P03372).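 Note: potency for inhibiting coactivator peptide recruitment to the receptor.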
T5 sequence (P03372 whole entry): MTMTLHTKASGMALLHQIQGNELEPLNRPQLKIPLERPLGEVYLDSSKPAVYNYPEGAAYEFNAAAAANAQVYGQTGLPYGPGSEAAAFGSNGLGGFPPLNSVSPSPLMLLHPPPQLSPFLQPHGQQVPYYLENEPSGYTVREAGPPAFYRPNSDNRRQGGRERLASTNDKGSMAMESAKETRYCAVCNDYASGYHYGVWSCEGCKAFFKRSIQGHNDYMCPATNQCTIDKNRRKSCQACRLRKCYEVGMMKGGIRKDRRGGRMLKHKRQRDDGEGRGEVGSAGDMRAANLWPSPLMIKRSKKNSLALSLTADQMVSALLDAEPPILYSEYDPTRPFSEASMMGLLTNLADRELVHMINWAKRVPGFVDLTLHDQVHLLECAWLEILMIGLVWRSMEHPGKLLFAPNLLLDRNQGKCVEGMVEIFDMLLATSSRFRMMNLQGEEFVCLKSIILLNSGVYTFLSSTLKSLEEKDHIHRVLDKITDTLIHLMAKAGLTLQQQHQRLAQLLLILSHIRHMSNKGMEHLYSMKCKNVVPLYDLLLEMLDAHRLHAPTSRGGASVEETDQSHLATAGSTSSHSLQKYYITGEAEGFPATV

In assay [10] the target is Photoreceptor-specific nuclear receptor (Homo sapiens, UniProt Q9Y5X4). Type of assay: functional, cell-based.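 Note: CHO-S cells with Gal4-NCOR and VP16-NR2E3 two-hybrid luciferase reporter.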
Assay [11] is described as follows: StAR promoter reporter inhibition counter-screen, dose response, counter-screen for LRH-1 inverse agonist project, cell-based, luminescence, luciferase reporter (AID 651969). Type of assay: functional. On the technique in general: Counterscreens check selectivity or assay interference.
Assay [12] addresses Nuclear receptor subfamily 5 group A member 2 (Homo sapiens, UniProt O00482). Type of assay: functional, cell-based.
For another assay, the target named is Steroidogenic factor 1 (Homo sapiens, UniProt Q13285). In words: Counterscreen for inverse agonists of the liver receptor homolog-1 (LRH-1; NR5A2): Luminescence-based cell-based high throughput dose response assay to identify inverse agonists of the Steroidogenic Factor 1 Nuclear Receptor (SF1; NR5A1). Type of assay: functional.
The target in another assay is Paired box protein Pax-8 (Homo sapiens, UniProt Q06710). The experiment in a line: inhibitors of PAX8-driven TPO luciferase reporter, dose response, RMG-I cells, cherry-pick (AID 687027).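 Note: luciferase reporter driven by Pax8 target thyroperoxidase promoter measured by SteadyGlo luminescence.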 Format: functional, cell-based. On the technique in general: A reporter such as luciferase makes a cellular process visible.
Assay [13] can be described thus: NIH/3T3 fibroblast cytotoxicity, dose response, cytotoxicity control for T. cruzi growth inhibitor project, cell-based, cherry-pick samples, set 2 (AID 651817). Format: functional. Particulars: NIH3T3.
For assay [14], the target named is T6, Probable nicotinate-nucleotide adenylyltransferase (Staphylococcus aureus (strain N315), UniProt P65502). Format: functional, Staphylococcus aureus subsp. aureus N315.
For assay [15], the target named is T6, Probable nicotinate-nucleotide adenylyltransferase. Type of assay: functional, Staphylococcus aureus subsp. aureus N315. Conditions: read-out: IC50_Mean.
The target in assay [16] is T4, Sentrin-specific protease 1. The experiment in a line: potency of human SENP1 inhibitors, dose response, biochemical, kinetic FRET (AID 651697). Conditions: read-out: IC50_Mean. Type of assay: functional.

The source made the active and inactive calls.

T6 sequence (P65502 whole entry): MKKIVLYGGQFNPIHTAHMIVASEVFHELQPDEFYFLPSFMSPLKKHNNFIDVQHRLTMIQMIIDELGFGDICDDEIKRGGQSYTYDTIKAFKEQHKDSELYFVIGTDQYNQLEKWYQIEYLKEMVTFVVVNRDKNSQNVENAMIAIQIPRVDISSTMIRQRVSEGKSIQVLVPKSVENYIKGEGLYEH
Sequence of Paired box protein Pax-8 (Q06710 whole entry): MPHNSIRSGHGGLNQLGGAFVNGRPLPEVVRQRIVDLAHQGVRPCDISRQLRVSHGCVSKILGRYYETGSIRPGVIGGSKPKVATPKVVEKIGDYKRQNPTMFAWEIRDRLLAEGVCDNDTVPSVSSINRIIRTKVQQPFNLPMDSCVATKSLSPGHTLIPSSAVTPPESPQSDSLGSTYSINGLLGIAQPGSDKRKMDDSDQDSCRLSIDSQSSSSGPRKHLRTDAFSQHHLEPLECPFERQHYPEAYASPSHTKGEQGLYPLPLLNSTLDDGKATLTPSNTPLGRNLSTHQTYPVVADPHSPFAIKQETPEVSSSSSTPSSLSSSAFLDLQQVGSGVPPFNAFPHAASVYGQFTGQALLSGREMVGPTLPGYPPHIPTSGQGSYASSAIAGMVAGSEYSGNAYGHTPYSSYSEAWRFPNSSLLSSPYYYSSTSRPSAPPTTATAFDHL
Sequence of Photoreceptor-specific nuclear receptor (Q9Y5X4 whole entry, the tested form may be a part): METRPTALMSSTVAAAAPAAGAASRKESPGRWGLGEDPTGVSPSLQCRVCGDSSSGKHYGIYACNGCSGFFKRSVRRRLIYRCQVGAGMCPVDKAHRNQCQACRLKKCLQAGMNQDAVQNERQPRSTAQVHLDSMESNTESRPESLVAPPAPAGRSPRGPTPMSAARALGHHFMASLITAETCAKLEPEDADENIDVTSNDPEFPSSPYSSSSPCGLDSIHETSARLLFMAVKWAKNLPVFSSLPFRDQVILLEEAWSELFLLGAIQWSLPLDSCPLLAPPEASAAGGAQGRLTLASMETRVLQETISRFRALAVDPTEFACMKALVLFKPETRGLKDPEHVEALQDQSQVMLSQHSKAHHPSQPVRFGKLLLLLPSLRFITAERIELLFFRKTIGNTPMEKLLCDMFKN
Sequence of ADP-ribosylation factor GTPase-activating protein 1 (Q62848 whole entry, the tested form may be a part): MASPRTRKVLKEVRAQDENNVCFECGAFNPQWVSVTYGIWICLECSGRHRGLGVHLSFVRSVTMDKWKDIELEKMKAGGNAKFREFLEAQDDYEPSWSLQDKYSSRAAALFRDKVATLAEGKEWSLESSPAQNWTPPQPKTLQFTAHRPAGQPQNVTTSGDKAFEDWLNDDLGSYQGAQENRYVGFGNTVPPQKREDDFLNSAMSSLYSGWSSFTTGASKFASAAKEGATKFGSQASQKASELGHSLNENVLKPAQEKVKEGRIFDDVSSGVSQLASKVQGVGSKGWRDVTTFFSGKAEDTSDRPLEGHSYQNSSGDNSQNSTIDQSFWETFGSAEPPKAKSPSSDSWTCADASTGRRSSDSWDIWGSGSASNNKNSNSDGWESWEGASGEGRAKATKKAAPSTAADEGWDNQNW
Sequence of Arf-GAP with SH3 domain, ANK repeat and PH domain-containing protein 1 (Q9ULH1 whole entry, the tested form may be a part): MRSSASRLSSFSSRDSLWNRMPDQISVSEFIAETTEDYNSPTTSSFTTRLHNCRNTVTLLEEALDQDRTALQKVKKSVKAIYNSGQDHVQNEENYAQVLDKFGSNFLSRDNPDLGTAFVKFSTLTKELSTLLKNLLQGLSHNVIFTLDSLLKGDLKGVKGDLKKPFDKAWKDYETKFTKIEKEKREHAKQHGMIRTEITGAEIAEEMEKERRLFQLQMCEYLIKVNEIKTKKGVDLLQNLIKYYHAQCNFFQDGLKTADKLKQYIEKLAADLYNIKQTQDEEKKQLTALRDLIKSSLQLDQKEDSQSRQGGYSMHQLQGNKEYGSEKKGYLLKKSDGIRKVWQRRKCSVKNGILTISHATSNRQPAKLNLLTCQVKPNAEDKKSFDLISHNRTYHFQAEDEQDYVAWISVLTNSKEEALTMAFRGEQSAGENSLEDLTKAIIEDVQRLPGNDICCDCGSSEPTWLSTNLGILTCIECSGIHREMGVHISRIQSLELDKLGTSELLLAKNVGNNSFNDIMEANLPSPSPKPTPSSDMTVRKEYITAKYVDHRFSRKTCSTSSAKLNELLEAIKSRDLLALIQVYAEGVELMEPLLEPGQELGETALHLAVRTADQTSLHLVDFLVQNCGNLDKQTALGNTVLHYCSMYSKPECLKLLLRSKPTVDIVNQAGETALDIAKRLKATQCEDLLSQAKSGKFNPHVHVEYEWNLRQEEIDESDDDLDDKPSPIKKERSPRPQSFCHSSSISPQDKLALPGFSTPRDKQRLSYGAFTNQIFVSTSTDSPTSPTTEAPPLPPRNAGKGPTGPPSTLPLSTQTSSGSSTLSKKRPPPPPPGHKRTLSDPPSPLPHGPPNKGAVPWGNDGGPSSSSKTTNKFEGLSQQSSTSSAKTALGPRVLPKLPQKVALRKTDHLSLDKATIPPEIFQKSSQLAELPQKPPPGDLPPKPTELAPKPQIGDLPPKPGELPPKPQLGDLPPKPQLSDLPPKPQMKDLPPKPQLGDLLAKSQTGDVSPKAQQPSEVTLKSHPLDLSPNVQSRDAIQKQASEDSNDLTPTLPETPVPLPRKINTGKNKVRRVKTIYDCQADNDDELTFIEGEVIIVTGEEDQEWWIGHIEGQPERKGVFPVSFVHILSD
Sequence of Steroidogenic factor 1 (Q13285 whole entry): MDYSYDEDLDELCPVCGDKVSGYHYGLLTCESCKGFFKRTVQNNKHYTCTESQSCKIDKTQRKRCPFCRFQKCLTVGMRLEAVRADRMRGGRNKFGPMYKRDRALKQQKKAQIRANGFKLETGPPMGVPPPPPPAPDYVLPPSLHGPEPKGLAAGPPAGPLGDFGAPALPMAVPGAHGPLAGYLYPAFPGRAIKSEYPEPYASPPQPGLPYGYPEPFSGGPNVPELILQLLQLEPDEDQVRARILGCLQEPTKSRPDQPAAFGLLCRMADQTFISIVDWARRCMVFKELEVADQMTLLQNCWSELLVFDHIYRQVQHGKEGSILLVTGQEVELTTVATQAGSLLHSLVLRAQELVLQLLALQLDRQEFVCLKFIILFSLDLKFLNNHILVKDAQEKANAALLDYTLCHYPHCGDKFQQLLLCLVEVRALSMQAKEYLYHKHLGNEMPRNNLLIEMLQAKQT
Sequence of Nuclear receptor subfamily 5 group A member 2 (O00482 whole entry): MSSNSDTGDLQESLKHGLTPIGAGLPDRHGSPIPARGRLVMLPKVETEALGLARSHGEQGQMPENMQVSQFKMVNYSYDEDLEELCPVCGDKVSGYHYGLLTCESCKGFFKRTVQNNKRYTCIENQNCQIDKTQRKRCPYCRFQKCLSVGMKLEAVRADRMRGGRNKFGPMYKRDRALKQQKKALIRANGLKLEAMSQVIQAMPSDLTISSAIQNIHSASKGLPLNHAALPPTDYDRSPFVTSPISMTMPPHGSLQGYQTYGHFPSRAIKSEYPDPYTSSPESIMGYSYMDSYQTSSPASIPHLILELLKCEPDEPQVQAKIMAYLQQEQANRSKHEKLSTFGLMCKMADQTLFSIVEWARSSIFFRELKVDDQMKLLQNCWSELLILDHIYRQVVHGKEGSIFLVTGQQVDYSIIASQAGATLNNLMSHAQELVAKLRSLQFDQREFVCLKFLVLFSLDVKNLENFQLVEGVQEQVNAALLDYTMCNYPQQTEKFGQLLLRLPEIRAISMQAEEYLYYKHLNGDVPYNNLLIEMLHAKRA

By AC50 is commonly meant the concentration giving half of the maximal activity seen. Consider `Cc1ccccc1Nc1cc(C)c2c(O)cccc2n1`, for which the IC50 was 80 µM (inactive) in assay [1], 6.78 µM (active) in assay [3] and 22.7 µM (inactive) in [4]. Moreover, the AC50 in [2] is 6.73 µM (active).
In the case of `CCN(CC)CCNc1cccc2sc3ccccc3c(=O)c12`, the AC50 is 51.4 µM (active) in assay [5] and 6.59 µM (active) in assay [6]. The IC50 in assay [7] was 46.3 µM (inactive).
Take `O=C(CSc1nnnn1-c1ccccc1)Nc1nsc(-c2ccc(Cl)cc2)n1`: the IC50 in assay [8] is 37.6 µM (inactive); in assay [9], 23.6 µM (inactive); at Estrogen receptor, 20.8 µM (active); in [10] it was 0.185 µM (active).
In the case of `COc1ccc(CCNC(=O)COC(=O)c2cccn2C)cc1`, the results for the IC50 (in [11]; in [12]; at Steroidogenic factor 1) were 35.9 µM (inactive), 35.9 µM (inactive) and 7.32 µM (active), respectively.
For `Cc1ccc(S(=O)(=O)Nc2ccc3c(c2)CC(=O)N([C@H](C)CO)C[C@H](C)[C@@H](CN(C)Cc2ccc(Cl)c(Cl)c2)O3)cc1`, the AC50 at Paired box protein Pax-8 was 13.3 µM (active); in assay [13], 13 µM (active).
Take `CC(C)(C)n1nc2c(c1NC(=O)c1ccc(S(=O)(=O)N3CCCC3)cc1)CSC2`: the IC50 is 12.7 µM (active) in [14] and 36.1 µM (active) in assay [15].
As to `CCN(CC(=O)Nc1ccc(NC(C)=O)cc1)C(=O)CSc1ncnc2sc(C)c(C)c12`, the IC50 is 4.9 µM (active) in assay [7] and 5.42 µM (active) in assay [16].

The values are drawn from ChEMBL document CHEMBL1201862, “PubChem BioAssay data set” (2004).
